Assay results published in US10093630B2, “Pyrazole compounds and methods of making and using same” (ABIDE THERAPEUTICS, INC., priority 2014, dated 2018).
Like-named read-outs stand apart in the source and are kept apart here.

Tests used:
Experiment in all cases: In vitro competitive activity-based protein profiling (gel-based, FP-Rh or HT-01 probe)
Assay type in all cases: biochemical
[1] = biological target: T1, ABHD6 (Mus musculus, UniProt Q8R2Y0); settings: for inhibition at 1 µM: 1 μM inhibitor, read-out: % Inhibition at 1 μM, C = ABHD6; for inhibition at 10 µM: 10 μM inhibitor, read-out: % Inhibition at 10 μM, C = ABHD6; for IC50: mouse brain membrane fraction or cell lysates, 30 min preincubation at 37° C., read-out: Mouse (IC50 value, nM) ABHD6
T1 construct: Proteomes (mouse brain membrane fraction or cell lysates); from tissue; host or cells: mouse brain membrane fraction (or cell lysates, not specified)
T1 sequence (Q8R2Y0 1-336): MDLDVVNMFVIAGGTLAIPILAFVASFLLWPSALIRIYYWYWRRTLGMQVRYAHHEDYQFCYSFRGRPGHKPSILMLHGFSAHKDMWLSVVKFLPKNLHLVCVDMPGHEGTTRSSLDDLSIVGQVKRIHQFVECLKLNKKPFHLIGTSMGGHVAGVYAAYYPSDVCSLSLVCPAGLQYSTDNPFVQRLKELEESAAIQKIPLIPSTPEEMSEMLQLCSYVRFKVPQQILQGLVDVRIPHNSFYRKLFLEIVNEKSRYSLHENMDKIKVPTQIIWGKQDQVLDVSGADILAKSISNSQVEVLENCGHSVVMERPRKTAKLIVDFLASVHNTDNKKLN
Method in brief: (§1)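 Mouse brain membrane proteome or cell lysate (1.0 mg/mL protein) was preincubated with inhibitor at varying concentrations for 30 min at 37° C, then labelled with FP-Rh or HT-01 for 30 min at 37° C. After SDS-PAGE, residual hydrolase activity was quantified as in-gel fluorescence of each band.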

[2] = biological target: T2, FAAH (Mus musculus, UniProt O08914); settings: for inhibition at 1 µM: 1 μM inhibitor, read-out: % Inhibition at 1 μM, B = FAAH; for inhibition at 10 µM: 10 μM inhibitor, read-out: % Inhibition at 10 μM, B = FAAH; for IC50: mouse brain membrane fraction or cell lysates, 30 min preincubation at 37° C., read-out: Mouse (IC50 value, nM) FAAH
T2 construct: Proteomes (mouse brain membrane fraction or cell lysates); from tissue; host or cells: mouse brain membrane fraction (or cell lysates, not specified)
T2 sequence (O08914 1-579): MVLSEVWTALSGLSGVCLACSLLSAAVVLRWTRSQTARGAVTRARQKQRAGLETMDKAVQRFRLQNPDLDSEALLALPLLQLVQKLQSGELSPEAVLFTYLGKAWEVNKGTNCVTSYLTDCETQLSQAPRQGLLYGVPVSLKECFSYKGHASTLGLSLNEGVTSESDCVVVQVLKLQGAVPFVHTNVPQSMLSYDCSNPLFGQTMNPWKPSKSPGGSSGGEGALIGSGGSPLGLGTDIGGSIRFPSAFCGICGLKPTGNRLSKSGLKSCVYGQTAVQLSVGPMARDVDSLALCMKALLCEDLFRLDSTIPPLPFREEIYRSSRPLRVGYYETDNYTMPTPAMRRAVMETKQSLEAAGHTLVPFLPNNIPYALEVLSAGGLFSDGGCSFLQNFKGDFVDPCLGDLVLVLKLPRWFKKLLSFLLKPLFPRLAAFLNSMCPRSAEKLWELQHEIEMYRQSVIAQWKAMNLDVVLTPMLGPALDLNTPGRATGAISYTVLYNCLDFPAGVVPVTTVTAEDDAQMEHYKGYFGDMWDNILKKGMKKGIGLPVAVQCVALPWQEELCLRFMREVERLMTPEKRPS
Method in brief: as §1

[3] = biological target: T3, MAGL (Mus musculus, UniProt O35678); settings: for inhibition at 1 µM: 1 μM inhibitor; for inhibition at 10 µM: 10 μM inhibitor; for IC50: mouse brain membrane fraction or cell lysates, 30 min preincubation at 37° C., read-out: Mouse (IC50 value, nM) MAGL
T3 construct: Proteomes (mouse brain membrane fraction or cell lysates); from tissue; host or cells: mouse brain membrane fraction (or cell lysates, not specified)
T3 sequence (O35678 1-303): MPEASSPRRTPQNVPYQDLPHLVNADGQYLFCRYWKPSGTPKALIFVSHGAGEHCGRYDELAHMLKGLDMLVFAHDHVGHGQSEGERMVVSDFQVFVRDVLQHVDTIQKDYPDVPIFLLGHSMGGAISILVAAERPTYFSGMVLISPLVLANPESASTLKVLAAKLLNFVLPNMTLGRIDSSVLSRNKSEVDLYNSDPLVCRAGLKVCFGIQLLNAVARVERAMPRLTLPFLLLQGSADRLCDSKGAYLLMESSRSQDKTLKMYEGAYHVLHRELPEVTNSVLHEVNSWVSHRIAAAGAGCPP
Method in brief: as §1

[4] = biological target: T4, PLA2G7 (Mus musculus, UniProt Q60963); settings: for inhibition at 1 µM: 1 μM inhibitor, read-out: % Inhibition at 1 μM, D = PLA2G7; for inhibition at 10 µM: 10 μM inhibitor, read-out: % Inhibition at 10 μM, D = PLA2G7
T4 construct: Proteomes (mouse brain membrane fraction or cell lysates); from tissue; host or cells: mouse brain membrane fraction (or cell lysates, not specified)
T4 sequence (Q60963 22-440): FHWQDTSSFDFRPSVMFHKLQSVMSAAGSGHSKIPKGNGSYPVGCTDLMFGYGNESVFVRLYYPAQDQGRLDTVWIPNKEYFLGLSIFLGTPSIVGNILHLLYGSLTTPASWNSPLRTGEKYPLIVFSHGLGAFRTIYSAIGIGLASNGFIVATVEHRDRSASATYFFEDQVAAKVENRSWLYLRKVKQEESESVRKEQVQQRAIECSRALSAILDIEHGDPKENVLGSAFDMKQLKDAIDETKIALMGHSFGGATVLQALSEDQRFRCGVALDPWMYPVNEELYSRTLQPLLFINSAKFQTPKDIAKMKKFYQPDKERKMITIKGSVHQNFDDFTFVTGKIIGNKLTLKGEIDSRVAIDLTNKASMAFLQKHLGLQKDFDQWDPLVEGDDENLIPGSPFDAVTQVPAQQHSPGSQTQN
Method in brief: as §1

inhibition at 1 µM [1]	inhibition at 10 µM [1]	inhibition at 1 µM [2]	inhibition at 10 µM [2]	inhibition at 1 µM [3]	inhibition at 10 µM [3]	inhibition at 1 µM [4]	inhibition at 10 µM [4]	IC50 [1]	IC50 [2]	IC50 [3]	IC50 ([4]; mouse brain membrane fraction or cell lysates, 30 min preincubation at 37° C.)	inhibition at 1 µM ([1]; gel-based competitive ABPP)	inhibition at 10 µM ([1]; gel-based competitive ABPP)	inhibition at 1 µM ([2]; gel-based competitive ABPP)	inhibition at 10 µM ([2]; gel-based competitive ABPP)	inhibition at 1 µM ([3]; gel-based competitive ABPP)	inhibition at 10 µM ([3]; gel-based competitive ABPP)	inhibition at 1 µM ([4]; gel-based competitive ABPP)	inhibition at 10 µM ([4]; gel-based competitive ABPP)	Compound
< 25%	> 75%	< 25%	> 75%	< 25%	25 to 75%	< 25%	25 to 75%													O=C(N1CCCCC1)n1cccn1 [Example 1, Piperidin-1-yl(1H-pyrazol-1-yl)methanone]
> 75%	> 75%	> 75%	> 75%	> 75%	> 75%	< 25%	> 75%	< 100 nM	< 100 nM	< 100 nM	100 to 1000 nM									O=C(N1CCN(Cc2ccc(C(F)(F)F)cc2)CC1)n1cc(Cl)cn1 [Example 213, (4-Chloro-1H-pyrazol-1-yl)(4-(4-(trifluoromethyl)benzyl)piperazin-1-yl)methanone]
< 25%	< 25%	< 25%	< 25%	< 25%	> 75%	< 25%	< 25%													Cc1cnn(C(=O)Nc2ccc3ccccc3c2)c1 [Example 41, 4-Methyl-N-(naphthalen-2-yl)-1H-pyrazole-1-carboxamide]
								> 1000 nM	< 100 nM	> 1000 nM		25 to 75%	> 75%	> 75%	> 75%	> 75%	> 75%	< 25%	> 75%	CCN(Cc1cccc(OC)c1)C(=O)n1cc(C(F)(F)F)cn1 [Example 250, N-Ethyl-N-(3-methoxybenzyl)-4-(trifluoromethyl)-1H-pyrazole-1-carboxamide]
< 25%	< 25%	25 to 75%	> 75%	< 25%	25 to 75%	< 25%	< 25%													CN(CCN(C)C(=O)n1cc(Cl)cn1)C(=O)c1ccccc1 [Example 194, 4-Chloro-N-methyl-N-(2-(N-methylbenzamido)ethyl)-1H-pyrazole-1-carboxamide]
												> 75%	> 75%	> 75%	> 75%	> 75%	> 75%	< 25%	> 75%	COc1cc(-c2ccccc2)ccc1CN1CCN(C(=O)n2cc(C(=O)N3CCCC3)cn2)CC1 [Example 290, (4-((3-Methoxybiphenyl-4-yl)methyl)piperazin-1-yl)(4-(pyrrolidine-1-carbonyl)-1H-pyrazol-1-yl)methanone]
	< 25%		< 25%		< 25%		< 25%													CC(=O)N(C)CCN(C)C(=O)n1cc(C)cn1 [Example 170, N,4-Dimethyl-N-(2-(N-methylacetamido)ethyl)-1H-pyrazole-1-carboxamide]
< 25%	> 75%	< 25%	25 to 75%	> 75%	> 75%	> 75%	> 75%													N#Cc1cnn(C(=O)N2CCN(C(=O)c3ccccc3)CC2)c1 [Example 176, 1-(4-Benzoylpiperazine-1-carbonyl)-1H-pyrazole-4-carbonitrile]
25 to 75%	> 75%	25 to 75%	> 75%	< 25%	25 to 75%	< 25%	< 25%													Cc1cnn(C(=O)N2CCCN(C(=O)OC(C)(C)C)CC2)c1 [Example 26, tert-Butyl 4-(4-methyl-1H-pyrazole-1-carbonyl)-1,4-diazepane-1-carboxylate]
												> 75%	> 75%	> 75%	> 75%	> 75%	> 75%	> 75%	> 75%	N#Cc1cnn(C(=O)N2CCN(Cc3ccc(C(=O)N4CCC4)cc3Cl)CC2)c1 [Example 283, 1-(4-(4-(Azetidine-1-carbonyl)-2-chlorobenzyl)piperazine-1-carbonyl)-1H-pyrazole-4-carbonitrile]
> 75%	> 75%	> 75%	> 75%	> 75%	> 75%	> 75%	> 75%													N#Cc1cnn(C(=O)N2CCCCC2)c1 [Example 3, 1-(Piperidine-1-carbonyl)-1H-pyrazole-4-carbonitrile]
> 75%	> 75%	> 75%	> 75%	> 75%	> 75%	< 25%	> 75%													O=C(N1CCN(Cc2ccc(-c3ccccc3)cc2OCc2ccccc2)CC1)n1cc(C(F)(F)F)cn1 [Example 147, (4-((3-(Benzyloxy)biphenyl-4-yl)methyl)piperazin-1-yl)(4-(trifluoromethyl)-1H-pyrazol-1-yl)methanone]
> 75%	> 75%	> 75%	> 75%	> 75%	> 75%	25 to 75%	> 75%	100 to 1000 nM	< 100 nM	< 100 nM										O=C(N1CCN(Cc2ccc(-c3ccccc3)cc2Cl)CC1)n1cc(C(F)(F)F)cn1 [Example 143, (4-((3-Chlorobiphenyl-4-yl)methyl)piperazin-1-yl)(4-(trifluoromethyl)-1H-pyrazol-1-yl)methanone]
